# From patent US20260243757A1, “IMMUNE CELL-DERIVED SECRETOME” (Agency for Science, Technology and Research, priority 2023, published 2026)
# What was measured:
# [1] = test system: CHLA01R (recurrent/relapse tumour cells); experiment: Drug treatment in secretome versus standard media (FIG. 41); type: cell-based, human; conditions: CHLA01R neurospheres
# [2] = test system: CHLA01 (primary tumour cells); experiment: as above; type: cell-based, human; conditions: CHLA01 neurospheres
# Medulloblastoma = experiment: Ispinesib in PDX brain tumors implanted using secretome+Tumor (Batch 94B); type: in vivo, mice; conditions: 10 mg/kg intraperitoneally every four days for three doses, repeated on day 21
# Procedure: (§1) Rag2/Severe combined immune deficiency (SCID) mice were bred and housed in a pathogen-free facility. Surgical implantation of tumour cells ([…]) into mouse cerebrum was performed using the method of the present disclosure previously described by studies in the art. The general recommendations in ARRIVE guidelines 2.0 (https://arriveguidelines.org/) were followed in the study of the present disclosure. The sample size of the present disclosure was small. […] The animals were randomly assigned into treatment versus control groups to have approximately equal number of animals per group. […] Treatment was delivered to animals assigned in treatment group, cage-by-cage. Blinding was not possible as the inventor of the present disclosure have a small team of 2-3 individuals working with the animals and the inventor of the present disclosure are all involved at various stages and day-to-day processes of the animal work. Separate batches comprising of various litters were used, minimizing bias from the same litter effect. The inventor of the present disclosure has previously published using this animal protocol and is not otherwise deposited in any repository/registry.
# OTSSP167 was dissolved in a solution of dimethyl sulfoxide, Kolliphor® EL and sterile water. A daily dose of 5 mg/kg of OTSSP167 was administered to the mice via intraperitoneal injection for 14 days. […]
# D341 = experiment: Drug treatment in secretome versus standard media (FIG. 41); type: cell-based, human
# [3] = test system: ATRT cell lines and medulloblastoma; experiment: Drug efficacy in the presence of the secretome; type: cell-based, human; conditions: during early tumourigenesis
# CHLA-02 [4] = experiment: Photomicrographs of growth morphology in T75 flasks; type: cell-based, human; conditions: OTSSP167 in secretome versus standard growth media
# CHLA-02 [5] = experiment: Proliferation assay (standard growth media), OTSSP167 dose-response; type: cell-based; conditions: Homo sapiens, 96 h, Day 4
# Procedure: (§2) Tumour cells were seeded in quadruplicates for each treatment condition (FIG. 5B). OTSSP167 was added. Cell proliferation was determined, and optical density (OD) was measured using a fluorescence/luminescence detection System.
# BT-37 [6] = experiment: as above; type: cell-based, human
# Procedure: as §2
# [7] = test system: autopsy-derived patient-derived orthotopic xenograft (PDOX) Model of ATRT; experiment: Orthotopic xenograft survival, intraperitoneal OTSSP167; type: in vivo, mice; conditions: 5 mg/kg daily intraperitoneal for 14 days; p=0.032, Log-rank test
# Procedure: as §1
# OTSSP167 was dissolved in a solution of dimethyl sulfoxide, Kolliphor® EL and sterile water. […]
# Mice were carefully monitored daily their fitness using a clinical staging system we previously published. […]
# Daoy = experiment: Drug treatment in secretome versus standard media (FIG. 41); type: cell-based, human
# six ATRT cell lines = experiment: Proliferation assay (standard growth media), panel; type: cell-based, human; conditions: over 13 days
# Procedure: as §2
# CHLA-02 [8] = experiment: Apoptosis assay of OTSSP167-treated cells, standard growth media versus six-factor secretome; type: cell-based, human; conditions: FIG. 37
# Procedure: (§3) Tumour cells were cultured in either standard growth media or six-factor-secretome for […] different duration −4 h, 24 h, 48 h and 96 h (FIG. 5G). To study the killing effect of OTSSP167, tumour cells cultured in each condition (standard growth media or six-factor-secretome) were treated with OTSSP167. Cells were harvested at respective timepoints and stained with FITC-Annexin V and/or Propidium lodide. Stained cells were then analysed by flow cytometry at the excitation wavelength of 488 nm (FITC) and 595 nM (PI). A total of 10,000 cells were analysed per measurement.
# BT-37 [9] = experiment: as above; type: cell-based, human
# Procedure: as §3
# another ATRT mouse model = conditions: cited from earlier work
# CHLA-02 and BT-37 cells = experiment: Immunoblotting after OTSSP167 treatment; type: cell-based, human
# Procedure: Cells were lysed in RIPA buffer with 1% Protease and Phosphatase Inhibitor Cocktail on ice. Protein samples were first denatured with 5% β-mercaptoethanol in Laemmli's buffer at 95° C. Protein concentration was determined using Protein Assay Kit. Protein lysates were resolved, and equal amounts of denatured proteins was run on NuPAGE 4-12% Bis-Tris Protein Gel and transferred onto PVDF membrane. Membrane blots for phosphorylated Histone H2A.X were blocked with 5% Bovine serum albumin (BSA) in 1× TBS-T ([…] Tris-buffered Saline, 0.1 % Tween® 20). Other membrane blots were blocked with 5% skim milk in 1× TBS-T for 1 hour and incubated with its respective primary antibodies at 4° C. overnight. Protein bands were visualized using an imaging system with Western blotting substrate. Primary antibodies used were: Eg5, cleaved PARP, β-actin, cleaved caspase-3, and p53, p-Histone H2A.X, p21. Secondary antibodies included: anti-rabbit IgG HRP-linked and anti-mouse IgG HRP linked.
# CHLA-04 = experiment: Proliferation assay (standard growth media), OTSSP167; type: cell-based, human; conditions: MELK-low CHLA-04; 50 nM dose
# Procedure: as §2
# CHLA-02 [10] = experiment: Flow cytometry for apoptotic cell death (Annexin V/PI); type: cell-based, human; conditions: CHLA-02 cells; 48 hours of OTSSP167 treatment
# Procedure: (§4) Tumour cells were treated in culture with OTSSP167 to detect apoptosis (FIG. 5C). At each timepoint, cells were harvested and stained with Annexin V-FITC and PI. Stained cells were then analysed by flow cytometry at the excitation wavelength of 488 nm (FITC) and 595 nM (PI). Cultured cells were treated with OTSSP167 to study the cell cycle changes. Cells were harvested and fixed with absolute ethanol. Fixed cells were stained with PI/RNase A master mix (PI and RNase A) prior to analysis by flow cytometry.
# BT-37 [11] = experiment: as above; type: cell-based, human; conditions: BT-37 cells; 48 hours of OTSSP167 treatment
# Procedure: as §4
# CHLA-02, BT-37 = experiment: Cell proliferation assay (secretome-based or growth-media-based), DMSO or OTSSP167; design: species or system human
# Procedure: Human myeloid-derived cells (U937) were seeded at a fixed density and stimulated with PMA and IL-4 for 48 h to obtain CD 11b+ cells. Stimulated human myeloid-derived macrophages were harvested without trypsinization (Biological replicate 1 in FIG. 4D and FIG. 5E) and with trypsinization (Biological replicate 2 and 3 in FIG. 4D and FIG. 5E). These cells highly express CD11b+ with or without trypsinization (FIG. 14A). CD11b+ cells were washed twice with PBS. CD11b+ cells were plated at a fixed density in 1 ml of pure RPMI (serum-free) to obtain CD11b+ supernatants (Condition 2). CD11b+ cells (same density) were co-incubated with tumour cells at 1:1 ratio in pure RPMI (serum-free) to obtain co-culture supernatant (Condition 3). Tumour cells were seeded at the same density to obtain tumour supernatant (Condition 1). […]
# Tumour cells were suspended in 3 types of cell-free supernatants: CD 11b+ supernatant, tumour supernatant, and CD11b+-tumour co-culture supernatant. […] Cell viability was determined by a kit at 4 h, 24 h, 48 h, 72 h time points, over a period of 3 days. Optical density (OD) was measured using a fluorescence/luminescence detection system (FIGS. 4A, 4B, FIG. 18). All other absorbance (OD) was measured at 450 nm using a multilabel plate reader. Absorbance of wells with serum-free pure RPMI was used as blank.
smiles,measurement,setting,value
"Cc1ccc(C(=O)N(CCCN)[C@@H](c2nc3cc(Cl)ccc3c(=O)n2Cc2ccccc2)C(C)C)cc1 [Ispinesib, (R)-N-(3-aminopropyl)-N-(1-(3-benzyl-7-chloro-4-oxo-3,4-dihydroquinazolin-2-yl)-2-methylpropyl)-4-methylbenzamide]",cell death/survival with drug in secretome compared to standard media,[1],survive better
same,cell death/survival with drug in secretome compared to standard media,[2],survive better
same,efficacy in PDX brain tumors implanted using secretome+Tumor,Medulloblastoma,effective
same,cell death/survival with drug in secretome compared to standard media,D341,survive better
same,drug efficacy in the presence of the secretome,[3],reduced
"CC(=O)c1cnc2ccc(-c3cc(Cl)c(O)c(Cl)c3)nc2c1N[C@H]1CC[C@H](CN(C)C)CC1 [OTSSP167, 1-(6-(3,5-dichloro-4-hydroxyphenyl)-4-(((1r,4r)-4-((dimethylamino)methyl)cyclohexyl)amino)-1,5-naphthyridin-3-yl)ethenone]",cell death/survival with drug in secretome compared to standard media,[1],survive better
same,cell death/survival with drug in secretome compared to standard media,[2],survive better
same,growth morphology of tumour cells treated with OTSSP167 in secretome,CHLA-02 [4],"maintained their interlacing, web-like architecture"
same,IC50,CHLA-02 [5],20.8 nM
same,cell death/survival with drug in secretome compared to standard media,D341,higher cell death
same,IC50,"BT-37 [6]; Homo sapiens, 96 h, BT-37, Day 4",70.4 nM
same,effect against tumour cells,"BT-37 [6]; MELK-high BT-37 cells, 5 nM dose",effective
same,drug efficacy in the presence of the secretome,[3],reduced
same,overall survival of animals,[7],significantly improved
same,cell death/survival with drug in secretome compared to standard media,Daoy,higher cell death
same,efficacy across panel of ATRT cell lines (dose-response),six ATRT cell lines,efficacious across a panel of six ATRT cell lines in nanomolar ranges
same,cell death with OTSSP167 in secretome compared to standard media conditions,CHLA-02 [8],more cell death
same,cell death with OTSSP167 in secretome compared to standard media conditions,"BT-37 [9]; BT-37, FIG. 38",more cell death
same,cell death of OTSSP167-treated BT-37 versus CHLA-02 in secretome,BT-37 [9]; in secretome after 24-48 h,more cell death than CHLA-02 cells
same,blood-brain-barrier penetration,another ATRT mouse model,penetrate blood-brain-barrier
same,p-Histone H2A.X (DNA damage),"CHLA-02 and BT-37 cells; 24 h, 48 h and 72 h treatment",increased
same,c-PARP (intrinsic apoptosis pathway),CHLA-02 and BT-37 cells; OTSSP167 treatment,increased
same,p53,CHLA-02 and BT-37 cells; OTSSP167 treatment,increased
same,effect against tumour cells,CHLA-04,effective
same,early and late apoptotic cells,CHLA-02 [10],50.7%
same,early and late apoptotic cells,BT-37 [11],58.1%
same,OTSSP167 efficacy in six-factor-secretome compared to standard growth media (tumour proliferation),"CHLA-02, BT-37",decreased
